In publication PMC6125496 (Antimicrobial Agents and Chemotherapy, 2018):
Values after ≈ are worked out from the molar mass of the structure shown. Where two headings read alike, the source gives them in different places. Non-standard residues stand in square brackets, D forms with d. Residues, ends and D or L forms follow the SMILES beside them. Dab(3S-OH) = NC[C@H](O)[C@H](N)C(=O)O; Phe(2-F) = N[C@@H](Cc1ccccc1F)C(=O)O; ΔZArg = N=C(N)NCC/C=C(\N)C(=O)O; dOrn = NCCC[C@@H](N)C(=O)O; Dab = NCC[C@H](N)C(=O)O

Columns and labels:
Citrobacter freundii MAU = conditions: Ambler class C carbapenem resistant; AmpC overexpressed + TEM-3
Excerpt: (§1) Reference strains are from the German Collection of Microorganisms and Cell Cultures (DSMZ), the American Type Culture Collection (ATCC), the National Collection of Type Cultures (NCTC), and the Medical and Molecular Microbiology, Faculty of Science and Medicine, University of Fribourg, Switzerland.

[1] = test system: Enterobacter cloacae 10.72; conditions: Ambler class C carbapenem resistant; AmpC overexpressed + TEM-1 + OXA-1
Excerpt: as §1

Escherichia coli MIN = conditions: Ambler class A carbapenemase; KPC-3 + OXA-9
Excerpt: as §1

[2] = test system: Klebsiella pneumoniae DUB; conditions: Ambler class D carbapenemase; OXA-48 + CTX-M15 + TEM-1 + SHV-1 + OXA-1 + CMY-2
Excerpt: as §1

[3] = test system: Polymyxin B-resistant E. coli (2)
Excerpt: as §1

[4] = test system: Acinetobacter baumannii ATCC 19606; experiment: microbe, parasite or virus in culture
Excerpt: as §1

[5] = test system: Ciprofloxacin-resistant K. pneumoniae (27); experiment: microbe, parasite or virus in culture
Excerpt: as §1

[6] = test system: Citrobacter freundii (16); experiment: microbe, parasite or virus in culture
Excerpt: as §1

[7] = test system: Citrobacter freundii DSM 30039; experiment: microbe, parasite or virus in culture
Excerpt: as §1

[8] = test system: Citrobacter kozeri DSM 4595; experiment: microbe, parasite or virus in culture
Excerpt: as §1

[9] = test system: Enterobacter aerogenes DSM 30053; experiment: microbe, parasite or virus in culture
Excerpt: as §1

[10] = test system: Enterobacter cloacae (13); experiment: microbe, parasite or virus in culture
Excerpt: as §1

[11] = test system: Enterobacter cloacae DSM 14563; experiment: microbe, parasite or virus in culture
Excerpt: as §1

[12] = test system: Enterococcus faecalis DSM 2570; experiment: microbe, parasite or virus in culture
Excerpt: as §1

Escherichia coli (101) = experiment: microbe, parasite or virus in culture; conditions: 101 clinical isolates
Excerpt: as §1

[13] = test system: Escherichia coli ATCC 25922; experiment: microbe, parasite or virus in culture
Excerpt: as §1

[14] = test system: Escherichia coli BAA-2469; experiment: microbe, parasite or virus in culture
Excerpt: as §1

[15] = test system: Gentamicin-resistant K. pneumoniae (16); experiment: microbe, parasite or virus in culture
Excerpt: as §1

[16] = test system: Klebsiella pneumoniae (56); experiment: microbe, parasite or virus in culture
Excerpt: as §1

[17] = test system: Klebsiella pneumoniae ATCC 43816; experiment: microbe, parasite or virus in culture
Excerpt: as §1

[18] = test system: Klebsiella pneumoniae ATCC BAA-1904; experiment: microbe, parasite or virus in culture
Excerpt: as §1

[19] = test system: Klebsiella pneumoniae ATCC BAA-1905; experiment: microbe, parasite or virus in culture
Excerpt: as §1

[20] = test system: Klebsiella pneumoniae NCTC 13439; experiment: microbe, parasite or virus in culture
Excerpt: as §1

[21] = test system: Klebsiella pneumoniae NCTC 13442; experiment: microbe, parasite or virus in culture
Excerpt: as §1

[22] = test system: Klebsiella pneumoniae NCTC 13443; experiment: microbe, parasite or virus in culture
Excerpt: as §1

[23] = test system: Pseudomonas aeruginosa DSM 1117; experiment: microbe, parasite or virus in culture
Excerpt: as §1

[24] = test system: Serratia marcescens DSM 17174; experiment: microbe, parasite or virus in culture
Excerpt: as §1

[25] = test system: Staphylococcus aureus ATCC 29213; experiment: microbe, parasite or virus in culture
Excerpt: as §1

[26] = test system: Staphylococcus epidermidis ATCC 12228; experiment: microbe, parasite or virus in culture
Excerpt: as §1

[27] = test system: Stenotrophomonas maltophilia ATCC 13637; experiment: microbe, parasite or virus in culture
Excerpt: as §1

[28] = test system: Streptococcus pneumoniae DSM 2134; experiment: microbe, parasite or virus in culture
Excerpt: as §1

[29] = test system: human renal proximal tubular epithelial cells (HRPTEpiC); experiment: Multiplexed HRPTEpiC cytotoxicity assay (cell viability, KIM-1, HSP27)
Description: The multiplexed cytotoxicity assay on human renal proximal tubule epithelial cells (HRPTEpiC) was conducted by Eurofins Panlabs (Eurofins Panlabs, Inc., St. Charles, MO) by using an image-based high content analysis (HCA) technique where cells were fixed and stained with nuclear dye to visualize nuclei and fluorescently labeled antibodies to detect drug-induced cellular injury and cellular stress arising from oxidative and chemical stress. Cells were seeded into 384-well plates and grown in RPMI 1640, 10% fetal bovine serum (FBS), 2 mM L-alanyl-L-glutamine, and 1 mM sodium pyruvate in a humidified atmosphere of 5% CO2 at 37°C. […] Compounds were serially diluted 3.16-fold and assayed over 10 concentrations in a final assay concentration of 0.5% dimethyl sulfoxide (DMSO) from 100 μM to 3.7 nM. At the same time, a time zero untreated cell plate was generated. After a 48-h incubation period, cells were fixed and stained with fluorescently labeled antibodies and nuclear dyed to allow visualization of nuclei, injured cells, and stressed cells. Injured cells were detected using a KIM-1 (kidney injury molecule 1) antibody. Stressed cells were detected using an anti-HSP27 (heat shock protein 27) antibody. Cell proliferation was measured by the signal intensity of the incorporated nuclear dye. The cell proliferation assay output was referred to as the relative cell count. To determine the cell proliferation endpoint, the cell proliferation data output was transformed to percentage of control (POC) using the following formula: POC = relative cell count in compound wells/relative cell count in vehicle wells × 100. The signal intensity of the incorporated cellular stress and injury measurements were normalized with the relative cell count from each well. Automated fluorescence microscopy was carried out using a Molecular Devices ImageXpress micro-imager, and images were collected with a 4× objective.

[30] = 27 ciprofloxacin-resistant isolates
[31] = Ambler class B carbapenemase, NDM-1
[32] = 16 gentamicin-resistant isolates

polymyxin B [PMB]
MIC (Citrobacter freundii MAU): 0.5 µg/mL
MIC [1]: 0.5 µg/mL
MIC (Escherichia coli MIN): 0.5 µg/mL
MIC [2]: 0.5 µg/mL
MIC range ([3]; 2 polymyxin B-resistant isolates): 4 to 32 µg/mL
MIC ([4]; reference strain): 0.5 µg/mL
MIC 50% [5, 30]: 0.5 µg/mL
MIC 90% [5, 30]: 1 µg/mL
MIC 50% ([6]; 16 clinical isolates): 0.5 µg/mL
MIC 90% ([6]; 16 clinical isolates): 1 µg/mL
MIC range ([6]; 16 clinical isolates): 0.25 to 1 µg/mL
MIC ([7]; reference strain): 0.5 µg/mL
MIC ([8]; reference strain): 0.25 µg/mL
MIC ([9]; reference strain): 0.5 µg/mL
MIC 50% ([10]; 13 clinical isolates): 0.5 µg/mL
MIC 90% ([10]; 13 clinical isolates): 8 µg/mL
MIC range ([10]; 13 clinical isolates): 0.5 to 16 µg/mL
MIC ([11]; reference strain): 1 µg/mL
MIC ([12]; reference strain): >32 µg/mL
MIC 50% (Escherichia coli (101)): 0.5 µg/mL
MIC 90% (Escherichia coli (101)): 1 µg/mL
MIC ([13]; reference strain): 0.5 µg/mL
MIC [14, 31]: 0.25 µg/mL
MIC 50% [15, 32]: 0.5 µg/mL
MIC 90% [15, 32]: 1 µg/mL
MIC range [15, 32]: 0.5 to 1 µg/mL
MIC 50% ([16]; 56 clinical isolates): 0.5 µg/mL
MIC 90% ([16]; 56 clinical isolates): 4 µg/mL
MIC range ([16]; 56 clinical isolates): 0.25 to 32 µg/mL
MIC ([17]; reference strain): 1 µg/mL
MIC ([18]; Ambler class A carbapenemase, KPC-3): 0.5 µg/mL
MIC ([19]; Ambler class A carbapenemase, KPC-2): 0.5 µg/mL
MIC ([20]; Ambler class B carbapenemase, VIM-1): 0.5 µg/mL
MIC ([21]; Ambler class D carbapenemase, OXA-48): 0.5 µg/mL
MIC [22, 31]: 0.5 µg/mL
MIC ([23]; reference strain): 1 µg/mL
MIC ([24]; reference strain): >32 µg/mL
MIC ([25]; reference strain): 16 µg/mL
MIC ([26]; reference strain): 16 µg/mL
MIC ([27]; reference strain): 1 µg/mL
MIC ([28]; reference strain): >32 µg/mL
IC50 ([29]; read-out: cytotoxicity IC50 (cell viability), 48-h incubation): 11.8 µM
concentration inducing a significant (5-fold) increase of HSP27 level ([29]; tested up to 100 μM): 9.7 µM
concentration inducing a significant (5-fold) increase of KIM-1 level ([29]; tested up to 100 μM): 12.1 µM

N=C(N)NCC/C=C(\NC(=O)[C@H](CCCCN)NC(=O)[C@H](Cc1ccccc1F)NC(=O)[C@@H]1CCCN1C(=O)[C@@H](CCCN)NC(=O)CNC(=O)[C@H](CCN)NC(=O)[C@@H](NC(=O)[C@@H](N)CCCCN)[C@@H](O)CN)C(=O)O [NOSO-502] (H-K[Dab(3S-OH)][Dab]G[dOrn]P[Phe(2-F)]K[ΔZArg]-OH)
MIC (Citrobacter freundii MAU): 1 µg/mL
MIC [1]: 1 µg/mL
MIC (Escherichia coli MIN): 4 µg/mL
MIC [2]: 0.5 µg/mL
MIC range ([3]; Polymyxin B-resistant (2)): 4 to 8 µg/mL
MIC ([4]; ATCC 19606): >64 µg/mL
MIC range ([5]; Ciprofloxacin-resistant (27)): 0.5 to 16 µg/mL
MIC range [6]: 1 to 4 µg/mL
MIC ([7]; DSM 30039): 2 µg/mL (≈ 1.85 µM)
MIC ([8]; DSM 4595): 2 µg/mL (≈ 1.85 µM)
MIC ([9]; DSM 30053): 2 µg/mL (≈ 1.85 µM)
MIC range [10]; 13: 1 to 4 µg/mL
MIC ([11]; DSM 14563): 2 µg/mL (≈ 1.85 µM)
MIC ([12]; DSM 2570): >64 µg/mL
MIC 50% (Escherichia coli (101)): 4 µg/mL (≈ 3.71 µM)
MIC 90% (Escherichia coli (101)): 8 µg/mL (≈ 7.42 µM)
MIC ([13]; ATCC 25922): 4 µg/mL (≈ 3.71 µM)
MIC ([14]; BAA-2469): 2 µg/mL (≈ 1.85 µM)
MIC range ([15]; Gentamicin-resistant (16)): 0.5 to 2 µg/mL
MIC range [16]; 56: 0.5 to 16 µg/mL
MIC ([17]; ATCC 43816): 1 µg/mL (≈ 0.927 µM)
MIC ([18]; ATCC BAA-1904): 2 µg/mL (≈ 1.85 µM)
MIC ([19]; ATCC BAA-1905): 1 µg/mL (≈ 0.927 µM)
MIC ([20]; NCTC 13439): 1 µg/mL (≈ 0.927 µM)
MIC ([21]; NCTC 13442): 1 µg/mL (≈ 0.927 µM)
MIC ([22]; NCTC 13443): 1 µg/mL (≈ 0.927 µM)
MIC ([23]; DSM 1117): >64 µg/mL
MIC ([24]; DSM 17174): 4 µg/mL (≈ 3.71 µM)
MIC ([25]; ATCC 29213): 1 µg/mL (≈ 0.927 µM)
MIC ([26]; ATCC 12228): 0.25 µg/mL (≈ 0.232 µM)
MIC ([27]; ATCC 13637): 16 µg/mL (≈ 14.8 µM)
MIC ([28]; DSM 2134): 64 µg/mL (≈ 59.4 µM)
concentration inducing a significant (5-fold) increase of KIM-1 level ([29]; tested up to 100 μM): > 100 µM
